Data reported in US6906078B2, “Method of using (H+/K+) ATPase inhibitors as antiviral agents” (Pharmacia Corporation, priority 1994, dated 2005).
Read-outs that look alike come from different tables or passages of the source.

Key:
(H+/K+)-ATPase = target: T1, (H+/K+)-ATPase (Canis lupus familiaris, UniProt P50996); experiment: Inhibition of (H+/K+)-ATPase from canine gastric mucosa (inorganic phosphate release); type: biochemical
T1 construct: The microsomes retained at the 15%-30% sucrose interface, after centrifugation at 250,000×g for sixty minutes, were used as the source of (H^+/K^+)-ATPase; from tissue; host or cells: gastric glandular mucosa of mongrel dogs (microsomal fraction, lyophilized)
T1 sequence (P50996 whole entry): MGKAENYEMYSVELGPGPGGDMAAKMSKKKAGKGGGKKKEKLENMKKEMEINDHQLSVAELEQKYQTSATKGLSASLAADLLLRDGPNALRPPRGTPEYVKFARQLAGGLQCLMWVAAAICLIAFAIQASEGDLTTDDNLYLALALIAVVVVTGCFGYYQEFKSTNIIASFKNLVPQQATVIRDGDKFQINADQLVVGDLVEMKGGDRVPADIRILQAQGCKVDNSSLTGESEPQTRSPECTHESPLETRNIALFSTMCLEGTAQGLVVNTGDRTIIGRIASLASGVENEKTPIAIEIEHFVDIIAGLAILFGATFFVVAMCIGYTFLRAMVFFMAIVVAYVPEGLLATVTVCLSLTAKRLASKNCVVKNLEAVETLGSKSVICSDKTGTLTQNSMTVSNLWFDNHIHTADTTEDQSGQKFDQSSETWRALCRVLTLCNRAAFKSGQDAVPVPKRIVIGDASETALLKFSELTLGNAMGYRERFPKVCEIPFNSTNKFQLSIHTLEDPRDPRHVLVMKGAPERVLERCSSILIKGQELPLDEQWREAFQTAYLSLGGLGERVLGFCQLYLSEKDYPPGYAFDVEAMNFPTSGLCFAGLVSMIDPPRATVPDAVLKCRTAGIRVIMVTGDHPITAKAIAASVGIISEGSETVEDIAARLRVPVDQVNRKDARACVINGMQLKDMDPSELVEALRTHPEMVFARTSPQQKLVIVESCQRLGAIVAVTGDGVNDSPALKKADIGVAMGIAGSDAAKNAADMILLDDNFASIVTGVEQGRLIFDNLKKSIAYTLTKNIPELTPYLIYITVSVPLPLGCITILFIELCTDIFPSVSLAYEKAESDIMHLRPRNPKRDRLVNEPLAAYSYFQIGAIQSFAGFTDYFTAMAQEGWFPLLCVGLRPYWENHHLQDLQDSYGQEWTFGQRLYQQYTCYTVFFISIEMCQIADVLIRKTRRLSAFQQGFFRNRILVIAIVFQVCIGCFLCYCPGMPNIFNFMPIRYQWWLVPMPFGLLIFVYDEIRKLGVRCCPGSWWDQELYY
T1 sequence (P33704 whole entry partner): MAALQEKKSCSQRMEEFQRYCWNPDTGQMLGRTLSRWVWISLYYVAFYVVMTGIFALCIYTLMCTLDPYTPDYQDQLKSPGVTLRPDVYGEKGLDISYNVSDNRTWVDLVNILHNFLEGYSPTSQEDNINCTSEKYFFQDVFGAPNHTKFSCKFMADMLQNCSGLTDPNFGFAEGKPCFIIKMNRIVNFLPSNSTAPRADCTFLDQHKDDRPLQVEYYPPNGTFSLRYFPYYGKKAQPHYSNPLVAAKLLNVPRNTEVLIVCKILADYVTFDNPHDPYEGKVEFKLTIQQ
Description: Mongrel dogs weighing 15 to 25 kilograms were fasted for twenty-four hours, with water provided ad libitum. The animals were anesthetized with pentobarbital and the stomachs were removed. Subsequent tissue manipulations and subcellular fractionations were performed at 0° C. to 4° C. After the stomachs were cut open and rinsed with tap water, the antral and cardiac regions were removed and the remaining tissue was rinsed three times in saline. The glandular mucosa was removed mechanically, chopped finely in a medium containing 10 mM Tris hydrochloride (pH 7.4) and 250 mM sucrose, and homogenized. The homogenate was centrifuged at 20,000×g for twenty minutes and the pellet discarded. The supernatant was then centrifuged at 150,000×g for ninety minutes and the supernatant discarded. The pellet was resuspended in the Tris-HCl/sucrose medium by homogenization. Part (2 ml) of the resultant microsomal suspension was layered onto a step gradient consisting of 9 ml of 15% sucrose above 12 ml of 30% sucrose, each sucrose solution being buffered with 10 mM Tris hydrochloride (pH 7.4) containing 0.01% sodium azide. The microsomes retained at the 15%-30% sucrose interface, after centrifugation at 250,000×g for sixty minutes, were used as the source of (H^+/K^+)-ATPase. Microsomal preparations were lyophilized, a process that assured potassium ion permiability, and stored at −10° C. until used.
(H^+/K^+)-ATPase activity for each test compound was determined, in duplicate, by measuring the release of inorganic phosphate, which was assayed according to the method of J. ChandraRajan and L. Klein, Anal. Biochem., 72 , 407 (1976). The (H^+/K^+)-ATPase assay medium consisted of 20 mm mes-Tris (pH 6.0), 5 mM magnesium chloride, 25 mM sucrose, and 4 mM Tris-ATP with or without 20 mM potassium chloride in a total volume of 2 ml. Microsomal suspensions (20 to 60 mcl, containing about 25 mcg protein) were added to the assay medium, without Tris-ATP, and then preincubated with a test compound for thirty minutes at 37° C. The assay was initiated by adding Tris-ATP and the mixture was incubated another thirty minutes at 37° C. A 200-mcl aliquot of the assay mixture was then added to 1.4 ml of a solution consisting of 0.1 M sodium acetate (pH 4.0) and 10% sodium dodecylsulfate, followed by the addition of 200 mcl each of 1% ammonium molybdate and 1% ascorbic acid. At least fifteen minutes later, the optical absorbance at 870 nm (which was proportional to inorganic phosphate concentration up to 100 nmoles per tube, as determined by a standard curve) was obtained. Enzyme activity was linear with incubation time.
(H^+/K^+)-ATPase activity is represented by the difference between the measured activities in the presence of potassium-ion (K^+-stimulated) and in the absence of potassium ion (basal).

[1] = target: HCMV protease (assemblin) (Human cytomegalovirus, UniProt P16753); experiment: Enzymatic assay for HCMV protease (assemblin) inhibitors, fluorogenic substrate DE2; type: biochemical; settings: for inhibition at 100 µM: read-out: Assemblin Inhibition % Inhibition at 100 μm
Chain of HCMV protease (assemblin) (P16753 1-256): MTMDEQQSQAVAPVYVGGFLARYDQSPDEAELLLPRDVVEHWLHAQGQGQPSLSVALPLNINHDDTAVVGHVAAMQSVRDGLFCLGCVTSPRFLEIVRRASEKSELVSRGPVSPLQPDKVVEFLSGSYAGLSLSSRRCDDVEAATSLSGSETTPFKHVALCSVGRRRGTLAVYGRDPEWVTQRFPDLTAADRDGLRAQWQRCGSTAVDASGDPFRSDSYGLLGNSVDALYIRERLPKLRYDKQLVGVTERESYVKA
Description: The enzymatic assay for assemblin inhibitors compared the rate of product appearance between a control reaction containing no inhibitor and one that contained a known concentration of a potential inhibitor. There were two phases to the enzyme reaction. The first was a period of incubation of enzyme in the presence of inhibitor, but in the absence of the substrate. This incubation allowed for the inhibitor to bind and potentially block the enzyme from hydrolyzing the substrate. The second phase was started by adding the substrate and measuring the rate of product production.
The construction also encoded six additional histidine residues at the amino terminus of the protease. These additional histidine residues provided an affinity ligand by which it was purified using nickel-nitriloacetic acid-agarose (Qiagen).
The purified protease was stored as a 1-3 mg/ml stock solution in 50 mM sodium phosphate buffer, pH 7.4; 300 mM sodium chloride; 100 mM imidazole; 50% (v/v) glycerol. This stock was diluted with assay buffer to 4.8 μg/ml. A 100 μL aliquot of this solution was used in the enzyme reaction.
A specific substrate was synthesized based on the cleavage specificity of HCMV protease at the “maturation site” of the assembly protein (F. Liu and B. Roizman, J. Viral. 65, 5149 (1991), and A. R. Welch, et al, J. Viral., 65 4091 (1991)). The assembly protein maturation site has the sequence . . . AGVVNA*SCRLATA . . . (SEQ ID NO. 1); the substrate used was dabcycl-Abu-[…]-edans (SEQ ID NO. 2) (DE2). […] However, when the two chromophores are separated because of hydrolysis of the peptide moiety by HCMV protease the edans fluorescence was no longer quenched and an increase in fluorescence was realized. DE2 was stored as a stock solution at 160 μg/ml in dimethyl sulfoxide. This was diluted 10-fold with assay buffer to give a concentration of 16 μg/ml just before use. An aliquot of 50 μL was used in the reaction.
An assay Buffer (10 mM sodium phosphate buffer, pH 7.4; 150 mM sodium acetate; 0.1% CHAPS; and 20% (v/v) glycerol) was used to dilute stock solutions of enzyme and substrate.
Inhibitors were dissolved in dimethyl sulfoxide at 16-times the final assay concentration. A 10 μL aliquot of this inhibitor solution was used in the reaction.
A 100 μL aliquot of enzyme solution (4.8 μg/ml) was mixed with 10 μL of inhibitor solution in a 96-well plate cell and incubated at 22° C. for 30 minutes. Control reactions contained 10 μL of dimethylsulfoxide instead of inhibitor solution. After the preincubation was completed, 50 μL of substrate solution was added and the fluorescence recorded every 5 minutes for a period of 30 minutes. All reactions were run in triplicate with the exception of the uninhibited control reaction which was replicated 6-fold. The change in fluorescence was recorded over time and an average rate for each set of 3 reactions was calculated. Fluorescence assays were subject to spurious various due to factors such as dust in the 96-well plate; such results were omitted from the calculation of relative rates.

gastric acid secretion = experiment: Inhibition of gastric acid secretion in gastric fistula beagle dogs (histamine-stimulated); type: in vivo; settings: for inhibition in vivo at 3 mg/kg: Canis lupus familiaris, 4 h, read-out: Gastric-Fistula Beagle % Inhibition (3 mg/kg dose)
Text: Adult female beagle dogs weighing 6 to 11 kilograms obtained from Laboratory Research Enterprises (Kalamazoo, Mich.) or from Hazelton Research Animals (Cumberland, Va.) were surgically implanted with a simple Thomas-type gastric cannula. After recovery from surgery, the dogs were trained to stand quietly, fully conscious, in Pavlov-type dog restraining slings and were acclimated to intravenous infusion of histamine dihydrochloride. During the course of these studies, no dog was used more than once a week. All dogs were deprived of food, but not water, for 18 hours prior to each assay. Each dog was initially infused with 0.15 M sodium chloride solution at a constant rate of […]. The volume of gastric secretions, collected in plastic bottles affixed to the cannula, were measured to the nearest 0.1 ml at 30 minute intervals. One of the following protocols was followed, depending on the route chosen for administration of test compound.
Intravenous dosing: Following a 30-minute basal secretion period, test compounds were administered intravenously (i.v.). At the end of an additional 30 minute period, the saline infusion was replaced with histamine dihydrochloride in saline administered at a rate 15 mcg per kilogram of body weight per hour. Histamine stimulation was maintained for a maximum of four hours during which time gastric secretions were collected every 30 minutes. The pH and titratable acidity were determined for samples from each collection period.
Intragastric dosing: Following a 30-minute basal secretion period, he collection bottles were removed, dosing plugs here inserted, and test compounds were administered intragastrically (i.g.) At the end of a 30-minute drug absorption period, the stomachs were emptied, the collection bottles were reattached, and collections were resumed at 30-minute intervals. Simultaneously, the saline infusion was replaced with a continuous intravenous infusion of histamine dihydrochloride in saline administered for four hours at a rate 15 mcg per kilogram of body weight per hour.
Intraduodenal dosing: Dogs were also equipped with duodenal cannulas for intraduodenal (i.d.) administration of test compounds. Dosing was otherwise performed as described for intragastric dosing.
Data from each protocol were analyzed for three gastric sample variables: volume of gastric juice, acid concentration, and total acid output. Percent inhibition for each four-hour experimental period was determined for each parameter by comparison with 3 to 4 controls in which […]. Estimates of ED50's were determined from dose response curves.

[2] = canine gastric mucosa microsomes, pH 6.0, 30 min preincubation at 37° C., read-out: (H+/K+)-ATPase IC50
[3] = at 100 μm, 30 min preincubation at 22° C.
[4] = intraduodenal, 3 mg/kg i.d., histamine-stimulated, four-hour period
[5] = iv, 3 mg/kg i.v., histamine-stimulated, four-hour period

| SMILES | IC50 ((H+/K+)-ATPase; [2]) | inhibition at 100 µM [1, 3] | melting point | further results |
| --- | --- | --- | --- | --- |
| CCOC(=O)c1ccc(N)c(C[S+]([O-])c2nc3ccc(OC)cc3[nH]2)c1 (stereo not shown) [Example 73, Ethyl 4-amino-3-[[(S-methoxy-1H-benzimidazol-2-yl)sulfinyl]methyl]benzoate] | > 100 µM | 50% | – | – |
| CN(C)c1ncccc1C[S+]([O-])c1nc2ccccc2[nH]1 (stereo not shown) [Example 83, 3-[(1H-Benzimidazol-2-ylsulfinyl)methyl]-N,N-dimethyl-2-pyridinamine ⅓ hydrate] | – | 83% | – | inhibition in vivo at 3 mg/kg (gastric acid secretion; [5]): 15%; IC50 ((H+/K+)-ATPase): 8.6 µM |
| Cc1cc(Cl)cc(C[S+]([O-])c2nc3ccccc3[nH]2)c1N.Cc1cc(Cl)cc(C[S+]([O-])c2nc3ccccc3[nH]2)c1N.O (stereo not shown) [Example 57, 2-[(1H-Benzimidazol-2-ylsulfinyl)methyl]-4-chloro-6-methylbenzenamine hemihydrate] | 60 µM | – | – | Assemblin Inhibition % Inhibition at 100 μm [1, 3]: 66% |
| CCOc1ccc2[nH]c([S+]([O-])Cc3ccccc3N)nc2c1 (stereo not shown) [Example 45, 2-[[(5-Ethoxy-1H-benzimidazol-2-yl)sulfinyl]-methyl]benzenamine] | 24 µM | 51% | 154 to 155 °C | – |
| CNc1ccccc1C[S+]([O-])c1nc2ccccc2[nH]1 (stereo not shown) [Example 32, 2-[(1H-Benzimidazol-2-ylsulfinyl)methyl]-N-methylbenzenamine monohydrate] | 0.64 µM | – | – | inhibition in vivo at 3 mg/kg (gastric acid secretion; intraduodenal): 21%; inhibition at 100 µM [1]: 52% |
| CCOC(=O)c1ccc(N)c(C[S+]([O-])c2nc3ccccc3[nH]2)c1.CCOC(=O)c1ccc(N)c(C[S+]([O-])c2nc3ccccc3[nH]2)c1.O (stereo not shown) [Example 71, Ethyl 4-amino-3-[(1H-benzimidazol-2-ylsulfinyl)methyl]benzoate hemihydrate] | > 100 µM | – | – | Gastric-Fistula Beagle % Inhibition (3 mg/kg dose) (gastric acid secretion; 3 mg/kg i.d., histamine-stimulated, four-hour period): 7 i.d. %; Assemblin Inhibition % Inhibition at 100 μm [1, 3]: 44% |

Second part, led by results:

| IC50 ((H+/K+)-ATPase; [2]) | inhibition at 100 µM [1, 3] | melting point | SMILES | further results |
| --- | --- | --- | --- | --- |
| 0.2 µM | 46% | 150 to 155 °C | COc1c(C)cc(N)c(C[S+]([O-])c2nc3ccccc3[nH]2)c1C (stereo not shown) [Example 39, 2-[(1H-Benzimidazol-2-ylsulfinyl)methyl]-4-methoxy-3,5-dimethylbenzenamine] | inhibition in vivo at 3 mg/kg (gastric acid secretion; [4]): 53% |
| 11 µM | 26% | 147 to 148 °C | COc1ccc2[nH]c([S+]([O-])Cc3ccccc3N)nc2c1 (stereo not shown) [Example 12, 2-[[(5-Methoxy-1H-benzimidazol-2-yl)sulfinyl]methyl]benzenamine] | inhibition in vivo at 3 mg/kg (gastric acid secretion; [4]): 90% |
| 9.3 µM | – | – | COc1cccc(C[S+]([O-])c2nc3ccccc3[nH]2)c1N.COc1cccc(C[S+]([O-])c2nc3ccccc3[nH]2)c1N.O (stereo not shown) [Example 22, 2-((1H-Benzimidazol-2-ylsulfinyl)methyl]-6-methoxybenzenamine hemihydrate] | Gastric-Fistula Beagle % Inhibition (3 mg/kg dose) (gastric acid secretion; 3 mg/kg i.v., histamine-stimulated, four-hour period): 70 i.v. %; Assemblin Inhibition % Inhibition at 100 μm [1, 3]: 35% |
| 4.4 µM | 40% | 152 to 152.5 °C | Nc1ccccc1C[S+]([O-])c1nc2cc(C(F)(F)F)ccc2[nH]1 (stereo not shown) [Example 47] | inhibition in vivo at 3 mg/kg (gastric acid secretion; [4]): 37% |
| 13.5 µM | 43% | – | Cc1cc2nc([S+]([O-])Cc3ccccc3N)[nH]c2cc1C (stereo not shown) [Example 10, 2-[[(5,6-Dimethyl-1H-benzimidazol-2-yl)sulfinyl]methyl]benzenamine ¼ hydrate] | inhibition in vivo at 3 mg/kg (gastric acid secretion; [5]): 44% |
| 2.7 µM | 71% | 163 to 164 °C | COc1cc(Cl)c(C)c(C[S+]([O-])c2nc3ccccc3[nH]2)c1N (stereo not shown) [Example 59, 2-[(1H-Benzimidazol-2-ylsulfinyl)methyl]-4-chloro-6-methoxy-3-methylbenzenamine] | – |
